#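 These data come from cells grown in 96-well plates and exposed to compound for 48 hours at five concentrations. GI50 is the concentration that inhibits growth by half.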 Activity calls are given as the source filed them. Rule as the data show it: active = GI50 up to about 1.1 µM and inactive = higher.
# Assays:
# Experiment in all cases: inhibition of tumour cell growth, NCI panel, 48 h
# [1] = system: 786-0
# [2] = system: A498
# [3] = system: A549
# [4] = system: ACHN
# [5] = system: BT-549
# [6] = system: CCRF-CEM
# [7] = system: COLO 205
# [8] = system: DU-145
# [9] = system: EKVX
# [10] = system: HCC 2998
# [11] = system: HCT-116
# [12] = system: HCT-15
# [13] = system: HOP-62
# [14] = system: HOP-92
# [15] = system: HT-29
# [16] = system: Hs-578T
# [17] = system: IGROV-1
# [18] = system: KM12
# [19] = system: LOX IMVI
# [20] = system: M14
# [21] = system: MCF7
# [22] = system: MDA-MB-231
# [23] = system: MDA-MB-435
# [24] = system: MDA-N
# [25] = system: MOLT-4
# [26] = system: Malme-3M
# [27] = system: NCI-H226
# [28] = system: NCI-H23
# [29] = system: NCI-H460
# [30] = system: NCI/ADR-RES
# [31] = system: OVCAR-3
# [32] = system: OVCAR-4
# [33] = system: OVCAR-5
# [34] = system: OVCAR-8
# [35] = system: PC-3
# [36] = system: RPMI-8226
# [37] = system: RXF 393
# [38] = system: SF-268
# [39] = system: SF-295
# [40] = system: SF-539
# [41] = system: SK-MEL-28
# [42] = system: SK-MEL-2
# [43] = system: SK-MEL-5
# [44] = system: SK-OV-3
# [45] = system: SN12C
# [46] = system: SNB-19
# [47] = system: SNB-75
# [48] = system: SR
# [49] = system: T47D
# [50] = system: TK-10
# [51] = system: U-251
# [52] = system: UACC-257
# [53] = system: UACC-62
# [54] = system: UO-31
# [55] = system: CAKI-1
# [56] = system: HL-60
# [57] = system: K562
# [58] = system: NCI-H522
# [59] = system: SW-620
smiles,measurement,setting,value
COc1ccc(-n2nnc3c(C#N)c(C)c(-c4ccccc4)n3c2=O)cc1,GI50,[1],1.94 µM (inactive)
same,GI50,[2],3.45 µM (inactive)
same,GI50,[3],2.9 µM (inactive)
same,GI50,[4],7.38 µM (inactive)
same,GI50,[5],5.92 µM (inactive)
same,GI50,[6],0.38 µM (active)
same,GI50,[7],2.93 µM (inactive)
same,GI50,[8],1.62 µM (inactive)
same,GI50,[9],2.84 µM (inactive)
same,GI50,[10],3.56 µM (inactive)
same,GI50,[11],0.501 µM (active)
same,GI50,[12],4.72 µM
same,GI50,[13],4.04 µM (inactive)
same,GI50,[14],> 92.7 µM (inactive)
same,GI50,[15],4.42 µM (inactive)
same,GI50,[16],4.58 µM (inactive)
same,GI50,[17],2.22 µM (inactive)
same,GI50,[18],2.71 µM (inactive)
same,GI50,[19],3.31 µM (inactive)
same,GI50,[20],1.4 µM (inactive)
same,GI50,[21],3.8 µM (inactive)
same,GI50,[22],10.3 µM (inactive)
same,GI50,[23],0.543 µM (active)
same,GI50,[24],0.413 µM (active)
same,GI50,[25],0.455 µM (active)
same,GI50,[26],3.95 µM (inactive)
same,GI50,[27],2.3 µM (inactive)
same,GI50,[28],3.34 µM (inactive)
same,GI50,[29],3.65 µM (inactive)
same,GI50,[30],2.84 µM (inactive)
same,GI50,[31],1.16 µM (inactive)
same,GI50,[32],> 75.2 µM (inactive)
same,GI50,[33],3.33 µM (inactive)
same,GI50,[34],4.92 µM (inactive)
same,GI50,[35],1.82 µM (inactive)
same,GI50,[36],1.99 µM (inactive)
same,GI50,[37],2.2 µM (inactive)
same,GI50,[38],5.19 µM (inactive)
same,GI50,[39],2.24 µM (inactive)
same,GI50,[40],2.04 µM (inactive)
same,GI50,[41],2.4 µM (inactive)
same,GI50,[42],3.56 µM (inactive)
same,GI50,[43],2.81 µM (inactive)
same,GI50,[44],2.29 µM (inactive)
same,GI50,[45],4.34 µM (inactive)
same,GI50,[46],3.35 µM (inactive)
same,GI50,[47],3.2 µM (inactive)
same,GI50,[48],1.96 µM (inactive)
same,GI50,[49],1.76 µM (inactive)
same,GI50,[50],> 43.2 µM (inactive)
same,GI50,[51],11.3 µM (inactive)
same,GI50,[52],> 47.4 µM (inactive)
same,GI50,[53],4.41 µM (inactive)
same,GI50,[54],4.33 µM (inactive)
CSc1ccc(/C=C2\N=C(c3ccccc3)N(/N=C3\C(=O)Nc4ccccc43)C2=O)cc1,GI50,[1],> 100 µM (inactive)
same,GI50,[2],> 100 µM (inactive)
same,GI50,[3],> 100 µM (inactive)
same,GI50,[4],> 100 µM (inactive)
same,GI50,[5],> 100 µM (inactive)
same,GI50,[55],> 100 µM (inactive)
same,GI50,[6],92.5 µM (inactive)
same,GI50,[7],> 100 µM (inactive)
same,GI50,[8],> 100 µM (inactive)
same,GI50,[9],38.7 µM (inactive)
same,GI50,[10],> 100 µM (inactive)
same,GI50,[11],> 100 µM (inactive)
same,GI50,[12],> 100 µM
same,GI50,[56],> 100 µM (inactive)
same,GI50,[13],> 100 µM (inactive)
same,GI50,[14],> 100 µM (inactive)
same,GI50,[15],> 100 µM (inactive)
same,GI50,[16],> 100 µM (inactive)
same,GI50,[17],> 100 µM (inactive)
same,GI50,[57],> 100 µM (inactive)
same,GI50,[18],> 100 µM (inactive)
same,GI50,[19],> 100 µM (inactive)
same,GI50,[20],> 100 µM (inactive)
same,GI50,[21],> 100 µM (inactive)
same,GI50,[22],> 100 µM (inactive)
same,GI50,[23],> 100 µM (inactive)
same,GI50,[24],> 100 µM (inactive)
same,GI50,[25],29.7 µM (inactive)
same,GI50,[26],> 100 µM (inactive)
same,GI50,[28],> 100 µM (inactive)
same,GI50,[29],> 100 µM (inactive)
same,GI50,[58],> 100 µM (inactive)
same,GI50,[30],> 100 µM (inactive)
same,GI50,[31],83.6 µM (inactive)
same,GI50,[32],> 100 µM (inactive)
same,GI50,[33],> 100 µM (inactive)
same,GI50,[34],88.3 µM (inactive)
same,GI50,[35],> 100 µM (inactive)
same,GI50,[37],> 100 µM (inactive)
same,GI50,[38],> 100 µM (inactive)
same,GI50,[39],> 100 µM (inactive)
same,GI50,[40],> 100 µM (inactive)
same,GI50,[41],> 100 µM (inactive)
same,GI50,[42],> 100 µM (inactive)
same,GI50,[43],> 100 µM (inactive)
same,GI50,[44],> 100 µM (inactive)
same,GI50,[45],> 100 µM (inactive)
same,GI50,[46],> 100 µM (inactive)
same,GI50,[47],> 100 µM (inactive)
same,GI50,[48],22.6 µM (inactive)
same,GI50,[59],> 100 µM (inactive)
same,GI50,[49],> 100 µM (inactive)
same,GI50,[50],> 100 µM (inactive)
same,GI50,[51],> 100 µM (inactive)
same,GI50,[52],> 100 µM (inactive)
same,GI50,[53],> 100 µM (inactive)
same,GI50,[54],> 100 µM (inactive)
